US12227535B2, “Triterpene saponins, methods of synthesis and uses thereof” (SLOAN KETTERING INSTITUTE FOR CANCER RESEARCH, priority 2008, dated 2025)

Experiments:
[1] = Toxicity: loss of weight after each injection; type: in vivo, mice (C57BL/6J, female); details: monitored 0 h, 24 h, 48 h, 72 h after each injection; GD3-KLH 10 μg; adjuvant 20 μg; 4-week duration
Method: As a measure of toxicity, loss of weight was monitored at 0 h, 24 h, 48 h and 72 h after each injection. […] As the negative control, vaccinations employing GD3-KLH only (no adjuvant) led to no appreciable weight loss after each injection.

GD3 ganglioside = experiment: Anti-GD3 antibody ELISA after vaccination of mice with GD3-KLH conjugate plus QS-21 adjuvants (Example 4); type: in vivo, mice (C57BL/6J, female); details: after 3 weekly vaccinations with GD3-KLH; adjuvant doses 10 and 20 μg; compared with GD3-KLH alone
Method: Using similar protocols, the immuno-potentiating properties of the synthetic adjuvants SQS-21-Api and SQS-21-Xyl were evaluated in mice (C57BL/6J, female, six weeks of age). […]
Groups of five mice were immunized with the melanoma antigen GD3 ganglioside conjugated to KLH (GD3-KLH) at a 10 μg antigen dose per vaccination. […] Immunopotentiation was assessed by testing for the presence of antibody against GD3 and KLH by ELISA, and against a tumor cell-line SK-MEL-28, expressing GD3 antigen, by FACS.
The antibody response after vaccination with GD3-KLH conjugate with or without adjuvant was determined with an ELISA assay using either GD3 ganglioside or KLH protein as target. […] After the third vaccination, no IgG antibodies against GD3 were detected; however, after the fourth immunization IgM and IgG antibody titers were induced in most mice. […]

[2] = in vivo; cited from earlier work

Molecule | weight loss after each injection [1] | IgM antibody response against GD3 (antibody titers) (GD3 ganglioside) | maximum dose [2] [µg]
CC[C@H](C)[C@H](C[C@H](O)CC(=O)O[C@H]1C(C)O[C@@H](OC(=O)[C@]23CCC(C)(C)CC2C2=CCC4C5(C)CC[C@H](O[C@@H]6OC(C(=O)O)[C@@H](O)[C@H](O[C@@H]7OC[C@@H](O)[C@H](O)C7O)C6O[C@@H]6OC(CO)[C@H](O)[C@H](O)C6O)[C@](C)(C=O)[C@@H]5CC[C@]4(C)[C@]2(C)CC3O)C(O[C@@H]2OC(C)[C@H](O[C@@H]3OC[C@@H](O)C(O[C@@H]4OCC(O)(CO)[C@@H]4O)C3O)C(O)C2O)C1O)OC(=O)C[C@@H](O)C[C@H](O[C@@H]1O[C@@H](CO)C(O)C1O)[C@@H](C)CC (some centres unmarked) [SQS-21-Api, QS-21-Api] | very similar | significantly higher than the group with GD3-KLH alone | 
CC[C@H](C)[C@H](C[C@H](O)CC(=O)O[C@H]1C(C)O[C@@H](OC(=O)[C@]23CCC(C)(C)CC2C2=CCC4C5(C)CC[C@H](O[C@@H]6OC(C(=O)O)[C@@H](O)[C@H](O[C@@H]7OC[C@@H](O)[C@H](O)C7O)C6O[C@@H]6OC(CO)[C@H](O)[C@H](O)C6O)[C@](C)(C=O)[C@@H]5CC[C@]4(C)[C@]2(C)CC3O)C(O[C@@H]2OC(C)[C@H](O[C@@H]3OC[C@@H](O)C(O[C@@H]4OC[C@@H](O)C(O)C4O)C3O)C(O)C2O)C1O)OC(=O)C[C@@H](O)C[C@H](O[C@@H]1O[C@@H](CO)C(O)C1O)[C@@H](C)CC (some centres unmarked) [SQS-21-Xyl, QS-21-Xyl] | very similar | significantly higher than the group with GD3-KLH alone | 
QS-21 |  |  | ≤ 50
